Laboratory results from US20100267561A1, “HERBICIDAL PYRIDAZINONE DERIVATIVES” (priority 2007, published 2010).

Assays:
Test in all cases: Test E pre-/postemergence plant response
Format in all cases: in vivo
[1] = test system: common groundsel (Senecio vulgaris); conditions: scale 0 to 100
Summary of the method: (§1)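 Formulated in a non-phytotoxic solvent mixture containing surfactant, compound was applied to soil at planting or sprayed on emerged plants at the 1- to 4-leaf stage. Visual comparison with controls followed 14 to 21 days in the greenhouse; 0 = no effect, 100 = complete control.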

[2] = test system: Virginia (V.) dayflower (Commelina virginica); conditions: scale 0 to 100
Summary of the method: as §1

kochia (Kochia scoparia) = conditions: Preemergence, scale 0 to 100
Summary of the method: as §1

[3] = test system: goosegrass (Eleusine indica); conditions: scale 0 to 100
Summary of the method: as §1

[4] = test system: prickly sida (Sida spinosa); conditions: scale 0 to 100
Summary of the method: as §1

[5] = test system: common sowthistle (Sonchus oleraceous); conditions: scale 0 to 100
Summary of the method: as §1

[6] = test system: Russian thistle (Salsola kali); conditions: Preemergence, scale 0 to 100
Summary of the method: as §1

[7] = test system: quackgrass (Elytrigia repens); conditions: scale 0 to 100
Summary of the method: as §1

[8] = test system: common chickweed (Stellaria media); conditions: 62 g ai/ha, Preemergence, scale 0 to 100
Summary of the method: as §1

[9] = test system: naked crabgrass (Digitaria nuda); conditions: scale 0 to 100
Summary of the method: as §1

[10] = test system: large crabgrass (Digitaria sanguinalis); conditions: scale 0 to 100
Summary of the method: as §1

CCOC(=O)Oc1cnn(C)c(=O)c1-n1nc(-c2ccc(Cl)cc2)cc1C [Compound 53]
Plant response rating, Groundsel ([1]; 16 g ai/ha, Preemergence): 0 | Plant response rating, Groundsel ([1]; 31 g ai/ha, Preemergence): 0 | Plant response rating, Groundsel ([1]; 62 g ai/ha, Preemergence): 0 | Plant response rating, Groundsel ([1]; Postemergence, 8 g ai/ha): 0 | Plant response rating, Groundsel ([1]; Postemergence, 16 g ai/ha): 0 | Plant response rating, Groundsel ([1]; Postemergence, 31 g ai/ha): 0 | Plant response rating, Groundsel ([1]; Postemergence, 62 g ai/ha): 0 | Plant response rating, Dayflower, V. ([2]; 16 g ai/ha, Preemergence): 0 | Plant response rating, Dayflower, V. ([2]; 31 g ai/ha, Preemergence): 0 | Plant response rating, Dayflower, V. ([2]; 62 g ai/ha, Preemergence): 0 | Plant response rating, Dayflower, V. ([2]; Postemergence, 8 g ai/ha): 0 | Plant response rating, Dayflower, V. ([2]; Postemergence, 16 g ai/ha): 0 | Plant response rating, Dayflower, V. ([2]; Postemergence, 31 g ai/ha): 0 | Plant response rating, Dayflower, V. ([2]; Postemergence, 62 g ai/ha): 0 | Plant response rating, Kochia (kochia (Kochia scoparia); 16 g ai/ha): 0 | Plant response rating, Kochia (kochia (Kochia scoparia); 31 g ai/ha): 0 | Plant response rating, Goosegrass ([3]; 16 g ai/ha, Preemergence): 80 | Plant response rating, Goosegrass ([3]; 31 g ai/ha, Preemergence): 100 | Plant response rating, Goosegrass ([3]; 62 g ai/ha, Preemergence): 100 | Plant response rating, Goosegrass ([3]; Postemergence, 8 g ai/ha): 20 | Plant response rating, Goosegrass ([3]; Postemergence, 16 g ai/ha): 65 | Plant response rating, Goosegrass ([3]; Postemergence, 31 g ai/ha): 80 | Plant response rating, Goosegrass ([3]; Postemergence, 62 g ai/ha): 95 | Plant response rating, Prickly Sida ([4]; 16 g ai/ha, Preemergence): 0 | Plant response rating, Prickly Sida ([4]; 31 g ai/ha, Preemergence): 0 | Plant response rating, Prickly Sida ([4]; 62 g ai/ha, Preemergence): 0 | Plant response rating, Prickly Sida ([4]; Postemergence, 8 g ai/ha): 0 | Plant response rating, Prickly Sida ([4]; Postemergence, 16 g ai/ha): 0 | Plant response rating, Prickly Sida ([4]; Postemergence, 31 g ai/ha): 0 | Plant response rating, Prickly Sida ([4]; Postemergence, 62 g ai/ha): 0 | Plant response rating, Sowthistle ([5]; 16 g ai/ha, Preemergence): 0 | Plant response rating, Sowthistle ([5]; 31 g ai/ha, Preemergence): 0 | Plant response rating, Sowthistle ([5]; 62 g ai/ha, Preemergence): 0 | Plant response rating, Sowthistle ([5]; Postemergence, 8 g ai/ha): 0 | Plant response rating, Sowthistle ([5]; Postemergence, 16 g ai/ha): 0 | Plant response rating, Sowthistle ([5]; Postemergence, 31 g ai/ha): 0 | Plant response rating, Sowthistle ([5]; Postemergence, 62 g ai/ha): 0 | Plant response rating, Thistle, Russian ([6]; 16 g ai/ha): 0 | Plant response rating, Thistle, Russian ([6]; 31 g ai/ha): 0 | Plant response rating, Thistle, Russian ([6]; 62 g ai/ha): 0 | Plant response rating, Quackgrass ([7]; 16 g ai/ha, Preemergence): 35 | Plant response rating, Quackgrass ([7]; 31 g ai/ha, Preemergence): 65 | Plant response rating, Quackgrass ([7]; 62 g ai/ha, Preemergence): 70 | Plant response rating, Quackgrass ([7]; Postemergence, 8 g ai/ha): 0 | Plant response rating, Quackgrass ([7]; Postemergence, 16 g ai/ha): 0 | Plant response rating, Quackgrass ([7]; Postemergence, 31 g ai/ha): 0 | Plant response rating, Quackgrass ([7]; Postemergence, 62 g ai/ha): 30 | Plant response rating, Chickweed [8]: 0 | Plant response rating, Crabgrass, Naked ([9]; 16 g ai/ha, Preemergence): 80 | Plant response rating, Crabgrass, Naked ([9]; 31 g ai/ha, Preemergence): 100 | Plant response rating, Crabgrass, Naked ([9]; 62 g ai/ha, Preemergence): 100 | Plant response rating, Crabgrass, Naked ([9]; Postemergence, 8 g ai/ha): 30 | Plant response rating, Crabgrass, Naked ([9]; Postemergence, 16 g ai/ha): 80 | Plant response rating, Crabgrass, Naked ([9]; Postemergence, 31 g ai/ha): 98 | Plant response rating, Crabgrass, Naked ([9]; Postemergence, 62 g ai/ha): 100 | Plant response rating, Crabgrass, Large ([10]; 16 g ai/ha, Preemergence): 40 | Plant response rating, Crabgrass, Large ([10]; 31 g ai/ha, Preemergence): 95 | Plant response rating, Crabgrass, Large ([10]; 62 g ai/ha, Preemergence): 100 | Plant response rating, Crabgrass, Large ([10]; Postemergence, 8 g ai/ha): 35 | Plant response rating, Crabgrass, Large ([10]; Postemergence, 16 g ai/ha): 95 | Plant response rating, Crabgrass, Large ([10]; Postemergence, 31 g ai/ha): 95 | Plant response rating, Crabgrass, Large ([10]; Postemergence, 62 g ai/ha): 100
